Experimental data from patent US20240041878A1, “APELIN RECEPTOR MODULATORS FOR TREATMENT OF A DISORDER OR DISEASE ASSOCIATED WITH BBB PERMEABILITY” (BioAge Labs, Inc., priority 2022, published 2024).

How the values were obtained:
[1] = system: Mouse astrocyte cells; test: Astrocyte gene expression (RT-PCR) after reactive astrocyte cocktail (RAC); format: cell-based
Experimental: Mouse astrocyte cells were seeded on 24-well plates at a low density of approximately 20 k astrocytes per well. To stimulate astrocytes into a reactive state found in aging and neurodegenerative diseases per previous publications (Liddelow et al., 2017; Barbar et al., 2020), a combination of the cytokines TNF-α and IL-1α, and complement factor C1q, were added at 30 ng/mL, 3 ng/mL, and 400 ng/mL, respectively, into astrocyte culture media to make 'reactive astrocyte cocktail' (RAC) media. […] Bachem, Cat. #4029110), BAY-11-7082 (50 μM; Abcam, Cat. #ab141228) or equal volume of vehicle (0.01% DMSO in PBS) (hereafter referred to as 'RAC treatment'). Cells in Groups 3-6 were treated with RAC for 24 hours, with or without the test compounds (n=4 per group). • Group 1: Control [CON] • Group 2: CON+BGE-105 (50 nM) [CON+105] • Group 3: Reactive control treated with RAC only [RAC] • Group 4: RAC+BGE-105 (50 nM) [RAC+105] • Group 5: RAC+Pyrm-Apelin-13 (50 nM) • Group 6: RAC+BAY-11-7082 (NF-κB inhibitor; 50 μM) [RAC+BAY] Media from each tested cell group was collected for cytokine release analysis. Cells were lysed for RNA collection and RT-PCR was performed to synthesis cDNA under standard conditions. Next, transcriptome analysis was performed to determine the expression level of astrocyte genes or astrocyte responsive genes. Changes of expression was normalized to β-actin (FIGS. 8 and 9). Exemplary biomarkers include CCL2, CXCL10, CXCL11, CXCL1, CXCL2, CXCL3, CXCL8, EDN1, […]3, CIS, CTRL, C3, CFB, VEGF, and IL-6.

[2] = system: aged mice with TBI; test: Traumatic brain injury (TBI) model in aged mice, controlled cortical impact; format: in vivo, mouse; details: given orally before and/or after controlled cortical impact
Excerpt: This study assessed the effects of BGE-105 on mitigating the effects of CNS damage and inflammation, and accelerating functional recovery, in a mouse model of TBI.
BGE-105 is given orally to aged mice at various potential doses for a period of time before and/or after controlled cortical impact (model of TBI in mice); during the experimental period, mice undergo various behavioral assessments to understand whether BGE-105 treatment affected motor and cognitive functions known to be impaired by TBI. After, the brains of mice are analyzed for neuroinflammatory markers by a variety of histological and biochemical methods

[3] = system: human patient, iPSC-derived neurons; test: Neurons from patient derived induced pluripotent stem cells (iPSCs); format: cell-based; details: compared to cells not treated with BGE-105
Excerpt: This study assesses the effect of BGE-105 (or media from other brain cells exposed to BGE-105, such as microglia and astrocytes) in human patient, iPSC-derived neurons improves a variety of functions associated with beneficial neuronal outcomes, including those listed below • i. proliferation and survival • ii. Autophagy • iii. synaptic plasticity • iv. ROS production

[4] = system: wildtype motor neurons; test: Neurons exposed to SOD1^G93A astrocyte-conditioned media or co-cultured with SOD1^G93A astrocytes; format: cell-based, mouse
Experimental: This study conducts co-culture experiments using SOD1^G93A astrocytes and wildtype motor neurons to determine effects of apelin signaling on rescue of neuronal survival and function. Co-culture experiments are conducted by measuring viability, neuronal homeostasis, and morphological endpoints.
Neurons are isolated from mouse spinal cords as previously described in Example 12 above. Non-astrocytic flowthrough following column-based cell isolation (MACS) are collected and cultured in serum-free, neuron-selective media in 12- or 96-well plates for at least 14 days before experimentation. For specific selection of spinal cord motor neurons, wildtype C57BL/6J mouse PNDO or adult spinal cords are processed using published methods (Beaudet, 2015).
Neurons are cultured for at least 14 days before the start of experimentation. First, ACM from wildtype or SOD astrocytes exposed to 250 nM BGE-105 (or vehicle) are added to neurons seeded in 96 well plates for 6, 12, 24, or 48 hours followed by analysis of neuronal survival using the ApoTox-Glo Triplex kit (Promega) to determine optimal exposure time. […]

[5] = system: rats; details: Ason et al., JCI Insight 2020; cited from earlier work

## COc1cccc(OC)c1-n1c(NS(=O)(=O)[C@@H](C)[C@H](C)c2ncc(C)cn2)nnc1-c1cncc(C)c1 [BGE-105, (2S,3R)—N-(4-(2,6-dimethoxyphenyl)-5-(5-methyl-3-pyridinyl)-4H-1,2,4-triazol-3-yl)-3-(5-methyl-2-pyrimidinyl)-2-butanesulfonamide]
[1]; CON+105, BGE-105 50 nM, no RAC
  expression of biomarkers CXCL1, C3 and IL-6 in control astrocytes: no or minimal impact
[1]; RAC+105 (50 nM) versus RAC, 24 hours, p<0.0001
  reduction of IL-6 gene expression in RAC-induced reactive astrocytes: 5-10 fold
[1]; RAC+105 (50 nM) versus RAC, 24 hours, p=0.0015
  reduction of C3 gene expression in RAC-induced reactive astrocytes: 10-20 fold
[1]; RAC+105 (50 nM) versus RAC, 24 hours, p=0.0204
  CXCL1 gene expression in RAC-induced reactive astrocytes: significantly reduced
[2]
  neuroinflammatory markers and neuro-inflammation: decrease of neuroinflammatory markers
[3]
  survival, differentiation and cellular functioning of stem-cell-derived neurons: improves overall survival, differentiation, and cellular functioning
[4]; pretreatment of SOD1^G93A astrocytes with 250 nM BGE-105
  neuron cell death caused by SOD1^G93A ACM: attenuated
[4]; wildtype neurons cultured with SOD1^G93A astrocytes, 250 nM BGE-105
  synaptic protein expression and neuronal structural integrity: preserves synaptic protein expression and neuronal structural integrity
[5]
  cardiovascular response: induces a cardiovascular response
